Data as given in patent US9776995B2, “Bicyclic sulfonamide compounds as sodium channel inhibitors” (AMGEN INC., priority 2013, dated 2017).
Read-outs that look alike come from different tables or passages of the source.

Key:
Nav 1.7 = Nav 1.7 (Homo sapiens (Human), UniProt Q15858); assay: in-vitro Nav 1.7 PX data; format: cell-based
Nav 1.5 = Nav 1.5 (Homo sapiens (Human), UniProt Q14524); assay: in-vitro Nav 1.5 PX data; conditions: read-out: Nav 1.5 PX IC50
Sequence of Nav 1.5 (Q14524 whole entry): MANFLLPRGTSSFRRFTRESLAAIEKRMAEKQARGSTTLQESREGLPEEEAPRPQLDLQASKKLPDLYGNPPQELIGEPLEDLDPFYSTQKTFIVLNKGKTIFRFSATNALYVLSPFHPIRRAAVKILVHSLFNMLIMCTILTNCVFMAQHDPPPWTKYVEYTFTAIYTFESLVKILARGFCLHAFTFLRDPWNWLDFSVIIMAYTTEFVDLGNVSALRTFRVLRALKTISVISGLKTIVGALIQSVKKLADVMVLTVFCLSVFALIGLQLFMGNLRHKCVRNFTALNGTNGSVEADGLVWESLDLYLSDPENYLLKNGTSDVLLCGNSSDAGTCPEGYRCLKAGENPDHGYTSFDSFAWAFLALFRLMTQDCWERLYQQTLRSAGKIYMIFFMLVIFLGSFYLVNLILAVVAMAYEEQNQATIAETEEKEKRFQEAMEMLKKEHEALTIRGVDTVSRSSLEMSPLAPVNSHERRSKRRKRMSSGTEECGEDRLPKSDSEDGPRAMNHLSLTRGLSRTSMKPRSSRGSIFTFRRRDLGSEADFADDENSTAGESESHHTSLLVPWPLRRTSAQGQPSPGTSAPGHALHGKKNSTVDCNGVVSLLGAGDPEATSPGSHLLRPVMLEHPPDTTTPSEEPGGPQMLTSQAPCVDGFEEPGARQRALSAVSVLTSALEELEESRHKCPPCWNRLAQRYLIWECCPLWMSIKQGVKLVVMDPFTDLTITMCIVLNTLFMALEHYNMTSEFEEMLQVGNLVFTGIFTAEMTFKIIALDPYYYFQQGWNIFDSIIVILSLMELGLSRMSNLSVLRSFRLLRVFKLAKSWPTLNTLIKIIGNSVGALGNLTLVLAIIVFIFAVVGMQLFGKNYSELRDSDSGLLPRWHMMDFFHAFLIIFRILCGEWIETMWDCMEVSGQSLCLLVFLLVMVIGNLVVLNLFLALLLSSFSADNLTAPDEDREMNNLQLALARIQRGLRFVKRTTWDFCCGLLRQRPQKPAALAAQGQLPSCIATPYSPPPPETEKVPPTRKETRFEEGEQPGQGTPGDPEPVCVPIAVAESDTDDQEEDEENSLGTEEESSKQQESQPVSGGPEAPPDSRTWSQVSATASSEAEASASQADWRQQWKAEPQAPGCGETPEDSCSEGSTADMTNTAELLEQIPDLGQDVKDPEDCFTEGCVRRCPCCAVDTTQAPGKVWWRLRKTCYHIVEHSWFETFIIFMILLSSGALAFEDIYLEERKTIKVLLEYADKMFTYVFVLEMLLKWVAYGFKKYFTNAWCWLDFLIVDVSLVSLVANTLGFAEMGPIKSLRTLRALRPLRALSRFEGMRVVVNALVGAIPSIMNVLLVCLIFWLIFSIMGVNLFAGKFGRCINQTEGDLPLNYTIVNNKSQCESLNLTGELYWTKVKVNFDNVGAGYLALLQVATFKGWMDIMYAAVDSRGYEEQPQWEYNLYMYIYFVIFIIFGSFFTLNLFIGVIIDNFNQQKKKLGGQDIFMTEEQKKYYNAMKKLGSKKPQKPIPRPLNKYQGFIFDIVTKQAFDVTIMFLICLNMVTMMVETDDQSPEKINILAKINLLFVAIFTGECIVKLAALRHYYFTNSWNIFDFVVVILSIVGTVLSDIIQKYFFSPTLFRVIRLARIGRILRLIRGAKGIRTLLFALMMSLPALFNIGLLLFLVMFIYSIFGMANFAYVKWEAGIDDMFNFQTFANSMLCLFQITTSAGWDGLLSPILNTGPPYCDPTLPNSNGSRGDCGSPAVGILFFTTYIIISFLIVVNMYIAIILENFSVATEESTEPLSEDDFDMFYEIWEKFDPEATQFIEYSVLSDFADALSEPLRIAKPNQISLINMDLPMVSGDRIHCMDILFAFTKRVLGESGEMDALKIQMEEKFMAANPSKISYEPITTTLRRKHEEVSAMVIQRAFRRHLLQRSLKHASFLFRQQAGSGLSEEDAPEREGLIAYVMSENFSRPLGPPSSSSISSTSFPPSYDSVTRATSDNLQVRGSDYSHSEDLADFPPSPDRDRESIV

Sequence of Nav 1.7 (Q15858 whole entry): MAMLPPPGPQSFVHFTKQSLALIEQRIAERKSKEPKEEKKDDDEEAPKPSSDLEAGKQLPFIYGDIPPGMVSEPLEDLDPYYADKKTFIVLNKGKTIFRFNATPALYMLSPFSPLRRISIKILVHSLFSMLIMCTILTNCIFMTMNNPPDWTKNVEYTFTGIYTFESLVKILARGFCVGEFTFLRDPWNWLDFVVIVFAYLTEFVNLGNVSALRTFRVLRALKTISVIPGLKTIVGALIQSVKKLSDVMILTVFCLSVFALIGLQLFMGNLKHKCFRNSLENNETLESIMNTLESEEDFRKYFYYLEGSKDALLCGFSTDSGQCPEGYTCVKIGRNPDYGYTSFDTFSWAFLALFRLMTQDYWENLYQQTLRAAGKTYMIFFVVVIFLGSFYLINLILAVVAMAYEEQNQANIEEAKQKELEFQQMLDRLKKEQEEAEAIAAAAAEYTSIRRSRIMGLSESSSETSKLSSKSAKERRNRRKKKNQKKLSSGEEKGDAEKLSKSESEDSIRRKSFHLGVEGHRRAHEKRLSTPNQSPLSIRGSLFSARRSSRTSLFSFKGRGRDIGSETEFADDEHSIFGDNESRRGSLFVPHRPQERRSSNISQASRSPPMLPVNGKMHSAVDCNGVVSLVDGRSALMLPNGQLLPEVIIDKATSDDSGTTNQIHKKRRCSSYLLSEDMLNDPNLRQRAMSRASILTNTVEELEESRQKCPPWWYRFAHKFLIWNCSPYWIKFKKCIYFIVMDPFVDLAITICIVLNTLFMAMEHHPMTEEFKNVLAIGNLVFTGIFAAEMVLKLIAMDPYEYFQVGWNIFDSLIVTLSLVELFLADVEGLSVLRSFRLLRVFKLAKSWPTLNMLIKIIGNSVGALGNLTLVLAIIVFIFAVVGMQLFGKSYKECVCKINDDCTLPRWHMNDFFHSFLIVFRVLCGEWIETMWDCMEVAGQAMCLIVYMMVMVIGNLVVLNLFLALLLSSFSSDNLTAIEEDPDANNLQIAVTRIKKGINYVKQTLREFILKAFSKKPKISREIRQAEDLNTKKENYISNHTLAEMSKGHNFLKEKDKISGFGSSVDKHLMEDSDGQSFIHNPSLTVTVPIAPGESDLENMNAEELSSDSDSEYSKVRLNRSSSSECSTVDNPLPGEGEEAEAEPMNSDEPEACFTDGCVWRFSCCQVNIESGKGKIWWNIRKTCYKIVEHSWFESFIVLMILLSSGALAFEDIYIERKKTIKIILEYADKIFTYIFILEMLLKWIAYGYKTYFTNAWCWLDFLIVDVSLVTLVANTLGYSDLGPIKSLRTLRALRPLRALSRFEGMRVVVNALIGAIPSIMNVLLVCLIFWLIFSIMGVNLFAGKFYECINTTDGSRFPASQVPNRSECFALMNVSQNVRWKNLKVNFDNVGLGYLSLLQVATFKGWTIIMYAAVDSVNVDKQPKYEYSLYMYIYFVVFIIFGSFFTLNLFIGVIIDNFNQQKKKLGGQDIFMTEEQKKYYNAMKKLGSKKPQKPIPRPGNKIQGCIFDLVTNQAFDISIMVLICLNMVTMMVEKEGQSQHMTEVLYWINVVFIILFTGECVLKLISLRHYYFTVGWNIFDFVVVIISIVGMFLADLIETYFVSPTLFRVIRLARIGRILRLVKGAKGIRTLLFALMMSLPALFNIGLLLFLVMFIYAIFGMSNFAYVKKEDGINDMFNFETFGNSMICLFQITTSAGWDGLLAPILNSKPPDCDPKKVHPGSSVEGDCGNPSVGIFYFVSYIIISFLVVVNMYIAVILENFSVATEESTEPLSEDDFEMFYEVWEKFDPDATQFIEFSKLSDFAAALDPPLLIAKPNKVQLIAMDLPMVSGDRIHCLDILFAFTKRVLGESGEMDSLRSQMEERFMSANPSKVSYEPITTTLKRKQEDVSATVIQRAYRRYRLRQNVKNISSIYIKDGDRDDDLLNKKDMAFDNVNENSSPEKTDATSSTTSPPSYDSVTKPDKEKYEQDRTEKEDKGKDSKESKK

| Compound | IC50 (Nav 1.7; in-vitro PX) | IC50 (Nav 1.5; in-vitro PX) | other results |
| --- | --- | --- | --- |
| COc1nc(OCC2CCCCC2)ccc1-c1nccc2cc(S(=O)(=O)Nc3ccncn3)ccc12 [Example 66, 1-(6-(cyclohexylmethoxy)-2-methoxy-3-pyridinyl)-N-4-pyrimidinyl-6-isoquinolinesulfonamide] | – | – | IC50 (Nav 1.7; PatchXpress (PX), in vitro): 349 nM; IC50 (Nav 1.5; PatchXpress (PX), in vitro): > 10000 nM |
| COc1cc(-c2cc(F)cnc2OC)ccc1-c1ccnc2cc(S(=O)(=O)Nc3nncs3)ccc12 [Example 209, 4-(4-(5-fluoro-2-methoxy-3-pyridinyl)-2-methoxyphenyl)-N-1,3,4-thiadiazol-2-yl-7-quinolinesulfonamide] | 328 nM | > 10000 nM | – |
| COc1cc(-c2cccc(F)c2)c(Cl)cc1-c1ncc(O)c2cc(S(=O)(=O)Nc3ccon3)ccc12 [Example 17, 1-(2-CHLORO-3′-FLUORO-5-METHOXY-[1,1′-BIPHENYL]-4-YL)-4-HYDROXY-N-(ISOXAZOL-3-YL)ISOQUINOLINE-6-SULFONAMIDE] | 85.1 nM | > 10000 nM | – |
| COc1cc(-c2ccc(F)cc2)c(C#N)cc1-c1nccc2cc(S(=O)(=O)Nc3nncs3)ccc12 [Example 219, 1-(2-cyano-4′-fluoro-5-methoxy-4-biphenylyl)-N-1,3,4-thiadiazol-2-yl-6-isoquinolinesulfonamide] | 33.8 nM | > 10000 nM | – |
| COc1cc(-c2cc(F)cc(F)c2)c(C#N)cc1-c1nccc2cc(S(=O)(=O)Nc3ncccn3)ccc12 [Example 107, 1-(2-cyano-3′,5′-difluoro-5-methoxy-4-biphenylyl)-N-2-pyrimidinyl-6-isoquinolinesulfonamide] | – | – | IC50 (Nav 1.7; in-vitro PX data): 255 nM; IC50 (Nav 1.5; in-vitro PX data): > 10000 nM |
| COc1cc(-c2cc(F)cnc2OC)ccc1-c1nccc2cc(S(=O)(=O)Nc3nncs3)ccc12 [Example 30, 1-(4-(5-FLUORO-2-METHOXYPYRIDIN-3-YL)-2-METHOXYPHENYL)-N-(1,3,4-THIADIAZOL-2-YL)ISOQUINOLINE-6-SULFONAMIDE] | – | – | IC50 (Nav 1.7; in-vitro Nav 1.7 PX data): 80.1 nM; IC50 (Nav 1.5; in-vitro Nav 1.5 PX data): > 30000 nM |
| COc1cc(-c2cccc(F)c2)c(Cl)cc1-c1nn(C)c(=O)c2cc(S(=O)(=O)Nc3ccon3)ccc12 [Example 21, 1-(2-CHLORO-3′-FLUORO-5-METHOXY-[1,1′-BIPHENYL]-4-YL)-N-(ISOXAZOL-3-YL)-3-METHYL-4-OXO-3,4-DIHYDROPHTHALAZINE-6-SULFONAMIDE] | – | > 10000 nM | IC50 (Nav 1.7): 42.4 nM |
| COc1nc(OCC2CCC(F)(F)CC2)ccc1-c1nccc2cc(S(=O)(=O)Nc3ccncn3)ccc12 [Example 69, 1-(6-((4,4-difluorocyclohexyl)methoxy)-2-methoxy-3-pyridinyl)-N-4-pyrimidinyl-6-isoquinolinesulfonamide] | – | – | IC50 (Nav 1.7; PatchXpress (PX), in vitro): 459 nM; IC50 (Nav 1.5; PatchXpress (PX), in vitro): > 30000 nM |
| COc1cc(-c2ccc(F)c(C)c2)c(C#N)cc1-c1nccc2cc(S(=O)(=O)Nc3nncs3)ccc12 [Example 230, 1-(2-cyano-4′-fluoro-5-methoxy-3′-methyl-4-biphenylyl)-N-1,3,4-thiadiazol-2-yl-6-isoquinolinesulfonamide] | 12.7 nM | > 10000 nM | – |
